According to patent publication US12037324B2, “Biarylmethyl heterocycles” (Université de Montréal, priority 2016, dated 2024):

Assays:
Format in all cases: cell-based
AGTR1 = molecular target: T1, AGTR1 (Homo sapiens, UniProt P30556); assay: DiscoveRx β-arrestin2 recruitment assay (enzyme complementation, Pathunter CHO-K1 AGTR1 β-arrestin cell line); conditions: DiscoveRx β-arrestin2 recruitment; for DiscoveRx β-arrestin2 Ymax (%): maximal response
T1 construct: host or cells: Pathunter CHO-K1 AGTR1 β-arrestin cell line (CHO-K1)
T1 sequence (P30556 1-359): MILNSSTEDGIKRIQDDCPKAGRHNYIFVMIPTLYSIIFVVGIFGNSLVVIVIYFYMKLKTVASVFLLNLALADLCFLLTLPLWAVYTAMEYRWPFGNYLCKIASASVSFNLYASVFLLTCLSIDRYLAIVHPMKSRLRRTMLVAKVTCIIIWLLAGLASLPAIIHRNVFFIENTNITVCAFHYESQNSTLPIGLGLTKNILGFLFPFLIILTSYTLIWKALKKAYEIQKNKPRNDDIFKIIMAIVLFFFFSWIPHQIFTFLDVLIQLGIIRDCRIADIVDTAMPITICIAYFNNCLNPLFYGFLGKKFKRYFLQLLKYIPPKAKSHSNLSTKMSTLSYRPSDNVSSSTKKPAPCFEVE
Outline: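 CHO-K1 cells expressing AGTR1 with β-arrestin2 enzyme-complementation reporter, plated 14-16 h ahead in 1% serum medium, then exposed to compounds for 90 min at 37° C. Chemiluminescence read after 1 h detection. EC50 (agonist) or IC50 (antagonist) from 4-parameter logistic fit; activity as percentage of All maximal effect.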

hAT1R [1] = molecular target: T2, hAT1R (Homo sapiens, UniProt P30556); assay: BRET β-arrestin2 biosensor assay, higher receptor expression (hAT1R 5 ng/well), HEK293 cells; conditions: for EC50: High AT1R Expression
T2 sequence (P30556 1-359): T1 sequence (P30556 1-359)

hAT1R [2] = molecular target: T2, hAT1R; assay: BRET Gq biosensor assay, agonist response, HEK293 cells; conditions: section of the 42nd table directly before the BRET P63 section
Experimental: BRET β-arrestin2 and Gq Activation Assays
In another aspect of the invention, association of the ATIR with signaling proteins is assessed using bioluminescence resonance energy transfer assays (Stephane Angers, Ali Salahpour et al. 2002). This technology measures the association between bioluminescent and fluorescent protein tags.
Several of the plasmid constructs used in BRET experiments were previously described. Briefly, the coding sequence of β-arrestin2 was fused to Renilla luciferase II to generate β-arrestin2-Rluc (Quoyer, Janz et al. 2013). The membrane targeting motif from K-Ras, CAAX motif (GKKKKKKSKTKCVIM), was fused to Renilla GFP to create rGFP-CAAX plasmid (Namkung Y et al., Nat Commun (2016) 7, 12178). The Renilla luciferase II was inserted in the Gaq protein to generate Gaq-Rluc (Breton, Sauvageau et al. 2010). The Gγ1 protein was tagged with GFP10 to obtain GFP-Gyl, using the same strategy described previously for GFP-Gy2 (Gales, Rebois et al. 2005). The Gaq binding domain of the p63RhoGEF protein (amino acids 295-502) was fused to Renilla luciferase II to create P63-Rluc. Finally, the hAT1R plasmid construct encoding the receptor was generated by optimizing the coding sequence of human angiotensin II receptor (GeneOptimizer from ThermoFisher), and adding an artificial cleavable signal peptide from bovine prolactin ([…]) in N-terminus of the receptor to increase cell surface expression.
Gq Biosensor Assay HEK293 cells were cultured in DMEM supplemented with Penicillin-Streptomycin and 10% fetal bovine serum. Two days before the BRET experiment, HEK293 cells were transfected with hAT1R expression plasmid (200 ng/well) as well as Gaq-Rluc (100 ng/well), Gβ1 (375 ng/well) and GFP-Gγ1 (625 ng/well), using linear polyethylenimine 25 kDa (PEI) at a PEI:DNA ratio of 3:1. Transfected cells were directly seeded in 96-well plates, at a density of 35 000 cells per well, and maintained in culture for the next 48 h.
BRET experiments were carried out subsequently using the following procedures: cells were washed once with Tyrode's buffer (137 mM NaCl, 1 mM CaCl2, 0.9 mM KCl, […], 3.6 mM NaH2PO4, 5.5 mM glucose, 12 mM NaHCO3, and 25 mM HEPES, pH 7.4) and 90 μl of Tyrode's buffer was added to each well. Cells were equilibrated in their new buffer at room temperature for at least 30 minutes. Following the equilibration period, the coelenterazine substrate was first added to the cells, 10 μl per well of a 10×solution (prolume purple coelenterazine at a final concentration of 2 μM), immediately followed by compound addition using the HP D300 digital dispenser from Tecan (10 singlicate concentrations). Cells were incubated for 5 min at room temperature and BRET readings were then collected using a Synergy Neo Multi-Mode reader from BioTek with BRET2 filters 410/515, to record agonist response. […] A second reading was collected 5 min after this second addition, using the Synergy Neo Multi-Mode reader from BioTek with BRET2 filters 410/515, to record antagonist response. The BRET signal was determined by calculating the ratio of the light emitted by GFP (515 nm) over the light emitted by the Rluc (410 nm). To analyze agonist response, BRET signal values were converted into percentage of activation using the non-stimulated control as 0% and AngII maximal response as 100%. Sigmoidal concentration-response curves were generated with those normalized values using a 4-parameter logistic equation (IDBS ActivityBase software), to determine EC50 of the different compounds. In the case of antagonist response analysis, BRET signal values were converted into percentage of inhibition using the fixed dose of AngII (corresponding to the EC50) as 0% and non-stimulated control as 100%. Sigmoidal concentration-response curves were generated with those normalized values using a 4-parameter logistic equation (IDBS ActivityBase software), to determine IC50 of the different compounds.

Structure (SMILES) | EC50 (AGTR1) | DiscoveRx β-arrestin2 Ymax (%) (AGTR1) | BRET β-Arrestin2 High AT1R Expression Ymax (%) (hAT1R [1]) | EC50 (hAT1R [1]) | EC50 (hAT1R [2])
CCCCC(=O)N(Cc1ccc(-c2cc(-c3ccccc3)ccc2-c2nn[nH]n2)nc1)C1(C(=O)O)CCCCC1 [Example 273] | 21.4 nM | 39.3% | 88.1% | 23.2 nM | 155 nM
CCCCC(=O)N(Cc1ccc(-c2cc(-c3ccccc3)ccc2-c2nn[nH]n2)cn1)C1(C(=O)O)CCCCC1 [Example 274] | 251 nM | 37.5% | 82.5% | 279 nM | 1490 nM
CCCCC(=O)N(Cc1ccc(-c2cc(-c3ccccc3)ccc2-c2nn[nH]n2)cc1)C1(C(=O)O)CCC(C)(C)CC1 [Example 275, 1-(N-((6′-(2H-Tetrazol-5-yl)-[1,1′:3′,1″-terphenyl]-4-yl)methyl)pentan-amido)-4,4-dimethylcyclohexanecarboxylic acid] | 26.6 nM | 50.9% | 71.5% | 21.5 nM | > 100000 nM
CCCCC(=O)N(Cc1ccc(-c2cc(-c3ccccc3)ccc2-c2nn[nH]n2)cc1)C1(C(=O)O)CCOCC1 [Example 276] | 50 nM | 50.9% | 73.6% | 77.9 nM | 401 nM
CCCCC(=O)N(Cc1ccc(-c2cc(-c3ccccc3)ccc2-c2nn[nH]n2)cc1)C1(C(=O)O)CCCCCC1 [Example 277] | 36.1 nM | 46.0% | 79.4% | 28.9 nM | > 100000 nM
CCCCC(=O)N(Cc1ccc(-c2cc(-c3ccccc3)ccc2-c2nn[nH]n2)cc1)[C@]1(C(=O)O)CC[C@@H](C)CC1 [Example 278] | 45.1 nM | 51.9% | 87.2% | 13 nM | 1210 nM
CCCCC(=O)N(Cc1ccc(-c2cc(-c3ccccc3)ccc2-c2nn[nH]n2)cc1)C1(C(=O)O)Cc2ccccc2C1 [Example 279] | 190 nM | 33.7% | 82.6% | 210 nM | > 100000 nM
CCCCC(=O)N(Cc1ccc(-c2cc(-c3ccccc3)ccc2-c2noc(=O)[nH]2)cc1)C1(C(=O)OC)CCCCC1 [Example 280, Methyl 1-(N-((6′-(5-oxo-4,5-dihydro-1,2,4-oxadiazol-3-yl)-[1,1′:3′,1″-terphenyl]-4-yl)methyl)pentanamido)cyclohexanecarboxylate] | 904 nM | 35.2% | 75.7% | 699 nM | 2870 nM
CCCCC(=O)N(Cc1ccc(-c2cc(-c3ccccc3)ccc2-c2noc(=O)[nH]2)cc1)C1(C(=O)O)CCCCC1 [Example 281] | 41.6 nM | 47.4% | 93.1% | 10.5 nM | 232 nM
CCCCC(=O)N(Cc1ccc(-c2cc(-c3ccccc3)ccc2-c2nn[nH]n2)cc1)[C@]1(C(=O)O)CC[C@@H](O)CC1 [Example 283, (1R,4R)-1-(N-((6′-(2H-Tetrazol-5-yl)-[1,1′:3′,1″-terphenyl]-4-yl)methyl)pentan-amido)-4-hydroxycyclohexanecarboxylic acid] | 44.5 nM | 57.5% | 88.5% | 22.8 nM | 155 nM
CCCCC(=O)N(Cc1ccc(-c2cc(-c3ccccc3)ccc2-c2nn[nH]n2)cc1)[C@]1(C(=O)O)CC[C@H](O)CC1 [Example 284, (1S,4S)-1-(N-((6′-(2H-Tetrazol-5-yl)-[1,1′:3′,1″-terphenyl]-4-yl)methyl)pentanamido)-4-hydroxycyclohexanecarboxylic acid] | 21.1 nM | 62.7% | 92.9% | 33 nM | 151 nM
